The data set is described as follows: Drug release/delivery (pulse) time of capsule in stirred purified water at 37° C., spectrophotometric. In kind it is physicochemical. An excerpt: A coated gelatin capsule of the type shown in FIG. 1 was filled with hydrogel powder prepared as in Example 1 of particle size 425 to 710 microns, and metoclopramide drug included as a separate layer. The hydrogel powder was compacted leaving a 4.5 mm space between the top of the hydrogel layer 10 and the mouth of the body 6. The metoclopramide was placed on top and the body was sealed with a hydrogel plug. […] The nominal delivery time was three hours.
In order to assess the delivery time to release of the drug, each capsule was placed in a liter of purified water at 37° C. stirred with a paddle at 50 rpm. The presence of drug in the water was monitored spectrophotometrically.
The procedure was repeated with a capsule having a hydrogel plug designed to provide a nominal delivery time of five hours. […] The "space" represents the space between the top of the hydrogel layer and the mouth of the body after inclusion of the drug. The space allows insertion of the plug to its correct depth without interference from the hydrogel powder fill. In this case the hydrogel plug was recessed 0.5 mm below the upper end of the neck of the capsule body.
Drug release was monitored spectrophotometrically at 226 nm.

Several values for one entry are separate records, joined by “and”; a condition that tells them apart may be missing. Identical values can stand only once.

As to salbutamol sulphate, for the setting “Example 4, standard deviation of 0.1, nominal three hour pulse time, shorter plug, hydrogel excipient”, the mean pulse time was 3.29 h.

Regarding `CCN(CC)CCNC(=O)c1cc(Cl)c(N)cc1OC` [metoclopramide], the “Delivery Time” value (individual capsules 1 to 6, Example 2, hydrogel powder excipient, nominal delivery time three hours, 37° C., paddle 50 rpm) was 3.25 h and 3.00 h. Further, for the setting “six capsules, Example 2, standard deviation 0.10, nominal three hours, hydrogel powder excipient”, the mean delivery time worked out at 3.21 h.

The values are drawn from patent US5897874A, “Expulsion of material from a delivery device” (R. P. Scherer Corporation, priority 1993, dated 1999).
